Values quoted from earlier work in patent publication US12644083B2, “Dual circulation microphysiological system” (CN Bio Innovations Limited, priority 2019, dated 2026).

Test system: primary human hepatocytes
Conditions: for rate of metabolism (in words): general statement: considered to be slowly metabolised; for test phase required to give measurable changes (metabolism): single loop 3D liver scaffold system

Compound	rate of metabolism (in words)	test phase required to give measurable changes (metabolism) [days]
CC(C)N(CCC(C(N)=O)(c1ccccc1)c1ccccn1)C(C)C (stereo not shown) [disopyramide]	slowly metabolised	5
CC(C)(C)NC[C@H](O)COc1nsnc1N1CCOCC1 [timolol]	slowly metabolised	5
